≈ marks a conversion by molar mass, not a printed value. Where “and” joins values, the source holds several entries; their conditions need not be identical. Equal entries are not always repeated. Where two headings read alike, the source gives them in different places.
Tests used:
[1] = ABTS radical scavenging assay; settings: for IC50: Table 3, molar units; for IC50 ABTS Assay: mean ± SEM of triplicate
Procedure: A method reported by Zheleva-Dimitrova et al. was adopted with slight modifications. Stock solutions of ABTS (7 mM) and potassium persulphate (2.45 mM) were prepared using distilled water. The working solution was prepared by adding 1 mL of ABTS solution to same amount of potassium persulphate solution. The reaction mixture was left overnight for 16 h to generate the intensely blue coloured ABTS^•+. 1 mL of ABTS^•+ was then added to 50 mL of MeOH and distributed (100 µL each) into a 96 microplate well containing 100 µL of serially diluted sample/ standard (7.81–125 µg/mL). Absorbance was measured at 734 nm against blank (containing sample and MeOH only). Test was conducted in triplicate. Samples were compared with trolox and ascorbic acid and percentage inhibition was calculated as follows:(2) (% ABTS inhibition)= [Ac−As/Ac] ×100 where, Ac = absorbance of ABTS^• in MeOH, As = absorbance ABTS^•+ in sample/standard.
The radical scavenging activity was determined from the IC50 values obtained from the percentage inhibition curve against different concentrations of the sample/standard.

[2] = DPPH radical scavenging assay; settings: for IC50: Table 3, molar units; for IC50 DPPH Assay: mean ± SEM of triplicate
Procedure: Modified methods from Sulaiman et al. and Ahmed et al. were used. Briefly, 150 µL of freshly prepared DPPH^• solution (0.4 M concentration) was carefully introduced into 96 round microplate wells each. 100 µL of sample/ standard (7.81–500 µg/mL) were added. Blanks contained only methanol and DPPH^•. Ascorbic acid (dissolved in distilled water) and quercetin (dissolved in MeOH) were used as standard. The plate was left in the dark for 25 min to activate. […] Tests were conducted in triplicate and the percentage inhibition of each sample/standard was calculated using the following equation:(1) (% DPPH inhibition)= [Ac−As/Ac] ×100 where, Ac = absorbance of DPPH radical in MeOH, As = absorbance of DPPH radical in sample or standard. IC50 values obtained from graphical plot from percentage inhibition against concentration were used to define the radial scavenging activity of each sample.

[3] = target: T1, α-amylase (Sus scrofa, UniProt P00690); experiment: In vitro α-amylase inhibitory assay (starch-iodine method); assay type: biochemical; settings: mean ± SEM of triplicate
T1 sequence (P00690 16-511): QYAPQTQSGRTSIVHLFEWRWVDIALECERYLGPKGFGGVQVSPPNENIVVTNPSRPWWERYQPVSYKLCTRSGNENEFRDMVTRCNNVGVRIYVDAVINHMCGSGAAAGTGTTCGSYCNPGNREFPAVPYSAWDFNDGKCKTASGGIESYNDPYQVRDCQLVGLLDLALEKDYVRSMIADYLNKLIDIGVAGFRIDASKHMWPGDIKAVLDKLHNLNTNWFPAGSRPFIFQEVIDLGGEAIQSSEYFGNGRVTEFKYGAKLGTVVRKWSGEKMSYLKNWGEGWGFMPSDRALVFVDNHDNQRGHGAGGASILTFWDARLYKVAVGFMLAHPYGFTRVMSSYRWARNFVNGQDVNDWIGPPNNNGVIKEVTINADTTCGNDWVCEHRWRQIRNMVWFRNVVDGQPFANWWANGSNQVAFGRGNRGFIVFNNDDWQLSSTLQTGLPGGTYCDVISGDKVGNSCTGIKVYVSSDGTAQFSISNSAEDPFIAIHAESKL
Procedure: The procedure proposed by Johnson et al. was adopted and modified for a microplate-based method carried out by Xiao et al.. Briefly, 25 µL of α-amylase solution (1 U/mL in 0.2 M phosphate buffer at pH 7) was introduced into 96 well flat bottom microplates followed by addition of 25 µL of serially diluted sample/standard (7.8–1000 µg/mL) and incubated for 5 min at 37 °C followed by 25 µL of 1% starch in buffer (boiled for 15 min) and re-incubated for 45 min at 50 °C. Next was the addition of 100 µL of 1% iodine solution and 50 µL of distilled water. The microplate was tightly covered during incubation to prevent evaporative loss. […] All determinations including sample, control, and blank were conducted in triplicate under the same reaction conditions. […] Inhibitory activity was determined using the following equation:(3) (% enzyme inhibition)= 1−[Abs/Contr] ×100 where, Abs is the absorbance of the sample or standard. Contr is the absorbance of the control without enzyme.

[4] = target: α-glucosidase (Saccharomyces cerevisiae, UniProt P53341); experiment: In vitro α-glucosidase inhibitory assay (pNPG substrate); assay type: biochemical
Sequence of α-glucosidase (Saccharomyces cerevisiae, UniProt P53341) (P53341 whole entry): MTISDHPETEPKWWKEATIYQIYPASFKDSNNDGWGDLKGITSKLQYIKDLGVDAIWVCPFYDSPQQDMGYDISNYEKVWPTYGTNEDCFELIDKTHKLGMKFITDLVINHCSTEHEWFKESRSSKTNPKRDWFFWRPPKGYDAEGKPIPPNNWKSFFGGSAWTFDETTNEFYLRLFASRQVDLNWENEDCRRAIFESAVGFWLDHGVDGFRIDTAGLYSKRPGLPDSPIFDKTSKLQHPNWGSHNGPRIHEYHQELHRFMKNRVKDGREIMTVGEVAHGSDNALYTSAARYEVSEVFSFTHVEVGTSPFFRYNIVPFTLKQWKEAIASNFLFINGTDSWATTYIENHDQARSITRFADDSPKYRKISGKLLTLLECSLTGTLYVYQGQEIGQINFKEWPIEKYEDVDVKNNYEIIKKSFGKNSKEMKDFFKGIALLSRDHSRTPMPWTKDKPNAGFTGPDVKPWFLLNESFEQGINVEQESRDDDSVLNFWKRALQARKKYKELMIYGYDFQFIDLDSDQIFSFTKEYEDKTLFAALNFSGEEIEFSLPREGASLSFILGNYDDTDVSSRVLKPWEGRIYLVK
Procedure: This assay used a method adapted from Johnson et al. with slight modifications employing α-glucosidase (enzyme) obtained from Saccharomyces cerevisiae (1 U/mL) dissolved in 50 mM phosphate buffer (pH 6.9). 100 µL of enzyme (in 0.1M phosphate buffer) was added into 96 microplate well containing 50 µL of sample/ standard 7.8–1000 µg/mL and incubated at 37 °C for 10 min. Next was the addition of 50 µL of the substrate, p-nitrophenyl glucopyranoside (5 mM in 0.1 phosphate buffer at pH 6.9) and re-incubated for 5 min at 37 °C. The reaction was terminated by the addition of 100 µL of 0.1 M Na2CO3 and absorbance was measured at 405 nm.
Experiments were conducted in triplicate.

[5] = Dot-blot staining assay, ABTS reagent; settings: 1 mg/mL, compared to ascorbic acid positive control
Procedure: (§1) Rapid detection of the free radical scavenging activity of isolated compounds from active fractions of E. spiralis methanol extract was carried out using a method adapted from Sarian et al.. Three detection agents viz., DPPH^•, ABTS^•+ and β-carotene were used. Briefly, few drops of each compound were spotted on a TLC plate (1.5 × 8 cm) using capillary tube and dried for few minutes at room temperature. The plate was then carefully dipped in 0.5% DPPH^• in methanol for few seconds. The plate was allowed to dry and the colour change was observed. Yellow spots on a purple background indicate radical scavenging activity and intensity of the yellow colour is proportional to the antioxidant activity. A TLC-β-carotene assay was also conducted using 0.05% of β-carotene in chloroform. A few drops of each sample (1 mg/mL) was spotted on TLC plate an allowed to dry after which it was dipped into β-carotene solution for 20 s. The plate was dried completely under direct sunlight for 3 h. Yellow or orange spot on a white background indicates activity. The intensity of the colour is dependent on the extent of antioxidant activity of the compound. TLC ABTS^•+ test was performed by mixing 2.45 mM of potassium persulphate with 7 mM of ABTS and kept in the dark for 16 hours to generate ABTS^•+. Already spotted TLC plates were then dipped into it for 10 s and allowed to dry at room temperature. White or orange spots on a bluish green background indicates activity.

[6] = Dot-blot staining assay, DPPH reagent; settings: 1 mg/mL, compared to ascorbic acid positive control
Procedure: as §1

[7] = Dot-blot staining assay, β-carotene; settings: 1 mg/mL, compared to ascorbic acid positive control
Procedure: as §1

[8] = target: α-glucosidase; set-up: method as in doi:10.1016/j.foodres.2014.01.029; settings: isolated from Rhodiola crenulata root; cited from earlier work
[9] = target: human pancreatic amylase; settings: cited from earlier work
[10] = Table 3, molar units, read-out: IC50 α-Glucosidase (converted)
[11] = mean ± SEM of triplicate, read-out: IC50 α-Glucosidase (converted)

Compound	IC50 DPPH Assay [2]	IC50 DPPH Assay ([2]; listed as ascorbic acid) [µg/mL]	IC50 [1] [µM]	IC50 ABTS Assay [1]	IC50 [2] [µM]	IC50 α-Amylase [3]	IC50 [4, 10] [µM]	IC50 [4, 11] [µM]	Dot-blot spot intensity, ABTS [5]	Dot-blot spot intensity, DPPH [6]	Dot-blot spot intensity, β-carotene [7]	IC50 ([4]; IC50 α-Glucosidase, Table 3, molar units) [µM]	IC50 ([4]; IC50 α-Glucosidase, mean ± SEM of triplicate) [µM]	IC50 ([4]; read-out: IC50 α-Glucosidase (converted))	IC50 [8] [µM]	Ki [9] [µM]
CCCCCCOC(=O)/C=C/c1ccc(O)c(OC)c1 [FEQ-2, (E)-hexyl 3-(4-hydroxy-3-methoxyphenyl) acrylate]	13.79 ± 2.13 µg/mL (≈ 49.5 µM)		10	4.69 ± 1.25 µg/mL (≈ 16.8 µM)	50	did not show any observable α-amylase inhibition	530	535	strong intensity	strong intensity	strong intensity					
O=C(O)c1cc(O)c(O)c(O)c1 [FEQ-5, gallic acid]	6.15 ± 0.38 µg/mL (≈ 36.2 µM)		7.5	1.28 ± 0.89 µg/mL (≈ 7.52 µM)	36				strong intensity	strong intensity	strong intensity	38	38.1			
Oc1cc(O)c2c(c1)O[C@H](c1ccc(O)c(O)c1)[C@@H](O)C2 [FEQ-7, (+)-catechin]	12.48 ± 1.55 µg/mL (≈ 43 µM)		6.4	1.86 ± 0.15 µg/mL (≈ 6.41 µM)	43	did not show any observable α-amylase inhibition			strong intensity	strong intensity	strong intensity			351 µM and 350 µM		
Oc1cc(O)c2c(c1)O[C@H](c1ccc(O)c(O)c1)[C@H](O)C2 [FEQ-8, (−)-epicatechin]			3.9	1.12 ± 0.09 µg/mL (≈ 3.86 µM)	40	did not show any observable α-amylase inhibition	340	341	strong intensity	strong intensity	strong intensity				29.9 ± 2.2	
Cc1c(C)c2c(c(C)c1O)CCC(C)(C(=O)O)O2 (stereo not drawn) [Tx, 6-hydroxy-2,5,7,8-tetramethylchroman-2-carboxylic acid, reference compound]			61	15.23 ± 2.15 ^A µg/mL												
montbretin A																0.008

Further lines, with some results ahead:

IC50 DPPH Assay [2]	IC50 DPPH Assay ([2]; listed as ascorbic acid) [µg/mL]	Compound	IC50 [1] [µM]	IC50 ABTS Assay [1]	IC50 [2] [µM]	IC50 α-Amylase [3]	IC50 [4, 10] [µM]	IC50 [4, 11] [µM]	Dot-blot spot intensity, ABTS [5]	Dot-blot spot intensity, DPPH [6]	Dot-blot spot intensity, β-carotene [7]	IC50 ([4]; IC50 α-Glucosidase, Table 3, molar units) [µM]	IC50 ([4]; IC50 α-Glucosidase, mean ± SEM of triplicate) [µM]	IC50 ([4]; read-out: IC50 α-Glucosidase (converted))	IC50 [8] [µM]	Ki [9] [µM]
24.67 ± 0.45 ^A µg/mL	5.38 ± 1.26 (≈ 30.5 µM)	O=C1O[C@H]([C@@H](O)CO)C(O)=C1O [Ac, ascorbic acid, reference compound]	95	16.74± 1.76 ^A µg/mL	140											
11.29 ± 0.26 µg/mL (≈ 39.4 µM)		O=c1c(O)c(-c2ccc(O)cc2)oc2cc(O)cc(O)c12 [FEQ-3, kaempferol]	7	2.10 ± 0.51 µg/mL (≈ 7.34 µM)	39				strong intensity	strong intensity	strong intensity					
66.17 ± 8.03 µg/mL (≈ 192 µM)		COc1cc(O)c2c(=O)c(OC)c(-c3ccc(O)c(OC)c3)oc2c1 [FEQ-4, pachypodol]	100		190		220	219	strong intensity	low intensity	low intensity					
29.82 ± 3.73 ^A µg/mL		O=c1c(O)c(-c2ccc(O)c(O)c2)oc2cc(O)cc(O)c12 [Qc, quercetin, reference compound]			99											
